Molecular target: T1, hCB1 (Homo sapiens, UniProt P21554)
T1 construct: expressed in transfected cells
Experiment: [35S]-GTPγS binding assay on membranes from cells stably transfected with the CB1 gene, inhibition of agonist CP55940
Type: biochemical
Conditions: EC80 concentration of agonist CP55940, membranes of CB1-transfected cells
Excerpt: Compounds of the present invention are active against the receptor product of the CB1 gene. The compounds of the present invention are active at the CB1 receptor (IC50<1 micromolar). Most preferred compounds have IC50<200 nanomolar. The affinity of the compounds of the invention for central cannabinoid receptors is demonstrable in methods described in Devane et al., Molecular Pharmacology, 1988, 34,605 or those described in WO01/70700 or EP 656354. Alternatively the assay may be performed as follows.
10 μg of membranes prepared from cells stably transfected with the CB1 gene were suspended in […] of 100 mM NaCl, 5 mM MgCl2, 1 mM EDTA, 50 mM HEPES (pH 7.4), 1 mM DTT, 0.1% BSA and 100 μM GDP. To this was added an EC80 concentration of agonist (CP55940), the required concentration of test compound and 0.1 μCi [^35S]-GTPγS. […] Filters were then covered with scintilant and counted for the amount of [^35S]-GTPγS retained by the filter.
Activity is measured in the absence of all ligands (minimum activity) or in the presence of an EC80 concentration of CP55940 (maximum activity). […] At various concentrations of novel ligand, activity is calculated as a percentage of the maximum activity and plotted. The data are fitted using the equation y=A+((B−A)/1+((C/x)UD)) and the IC50 value determined as the concentration required to give half maximal inhibition of GTPγS binding under the conditions used.

T1 sequence (P21554 whole entry): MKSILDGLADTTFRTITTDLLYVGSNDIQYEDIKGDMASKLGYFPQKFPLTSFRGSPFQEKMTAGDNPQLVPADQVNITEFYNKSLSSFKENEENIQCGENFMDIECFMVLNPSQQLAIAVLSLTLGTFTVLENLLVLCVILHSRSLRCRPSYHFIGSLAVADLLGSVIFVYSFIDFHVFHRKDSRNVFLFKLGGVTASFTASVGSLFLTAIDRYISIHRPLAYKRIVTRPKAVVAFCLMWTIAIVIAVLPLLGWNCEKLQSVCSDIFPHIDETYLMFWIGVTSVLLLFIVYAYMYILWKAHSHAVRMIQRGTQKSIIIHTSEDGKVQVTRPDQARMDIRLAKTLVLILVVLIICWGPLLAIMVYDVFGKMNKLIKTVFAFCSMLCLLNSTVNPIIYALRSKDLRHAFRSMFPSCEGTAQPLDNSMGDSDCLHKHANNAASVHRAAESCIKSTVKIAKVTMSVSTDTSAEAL

- IC50: 1.8 nM
Compound: CC1COC(c2nc(-c3ccc(Cl)cc3)c(-c3ccc(Cl)cc3)nc2C(=O)OC(C)(C)C)=N1 (stereo not shown) [Example 5, 5,6-bis(4-chlorophenyl)-3-(4-methyl-4,5-dihydrooxazol-2-yl)-pyrazine-2-carboxylic acid tert-butylester]

From patent publication US20070093505A1, “2,3-Substituted 5,6-diaryl-pyrazine derivatives as cb1 modulators” (ASTRAZENECA AB, priority 2003, published 2007)
